Data published in article PMC2919064 (Journal of medicinal chemistry, 2010).
Read-outs that look alike come from different tables or passages of the source.

Tests used:
BxPC-3 cells = test: MTS cell proliferation assay, pancreatic cancer cells; settings: read-out: inhibition of pancreatic cancer cell lines IC50, BxPC-3
HupT3 cells = test: as above; settings: read-out: inhibition of pancreatic cancer cell lines IC50, Hup T3
MiaPaca-2 cells = test: as above; settings: read-out: inhibition of pancreatic cancer cell lines IC50, Mia Paca-2
Panc04.03 cells [1] = test: as above; settings: read-out: inhibition of pancreatic cancer cell lines IC50, Panc 04.03
SU86.86 cells = test: as above; settings: read-out: inhibition of pancreatic cancer cell lines IC50, SU 86.86
HDAC1 = HDAC1 (Homo sapiens, UniProt Q13547); test: HDAC isoform inhibition assay
HDAC1, sequence (Q13547 whole entry, canonical isoform): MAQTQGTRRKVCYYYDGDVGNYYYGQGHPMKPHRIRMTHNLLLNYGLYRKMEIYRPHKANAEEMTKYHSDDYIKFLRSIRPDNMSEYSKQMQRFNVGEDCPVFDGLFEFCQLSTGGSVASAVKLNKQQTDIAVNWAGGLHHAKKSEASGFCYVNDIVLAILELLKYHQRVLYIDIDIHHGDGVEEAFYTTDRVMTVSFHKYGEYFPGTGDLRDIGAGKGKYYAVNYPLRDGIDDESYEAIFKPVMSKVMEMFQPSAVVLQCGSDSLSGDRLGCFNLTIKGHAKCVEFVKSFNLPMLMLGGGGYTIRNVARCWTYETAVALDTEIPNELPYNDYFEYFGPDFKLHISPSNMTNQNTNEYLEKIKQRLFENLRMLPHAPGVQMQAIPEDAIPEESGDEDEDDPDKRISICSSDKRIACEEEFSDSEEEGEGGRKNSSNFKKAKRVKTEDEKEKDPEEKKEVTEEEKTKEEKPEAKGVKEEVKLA

HDAC6 = molecular target: T1, HDAC6 (Homo sapiens, UniProt Q9UBN7); test: HDAC isoform inhibition assay
T1 sequence (Q9UBN7 1-1215): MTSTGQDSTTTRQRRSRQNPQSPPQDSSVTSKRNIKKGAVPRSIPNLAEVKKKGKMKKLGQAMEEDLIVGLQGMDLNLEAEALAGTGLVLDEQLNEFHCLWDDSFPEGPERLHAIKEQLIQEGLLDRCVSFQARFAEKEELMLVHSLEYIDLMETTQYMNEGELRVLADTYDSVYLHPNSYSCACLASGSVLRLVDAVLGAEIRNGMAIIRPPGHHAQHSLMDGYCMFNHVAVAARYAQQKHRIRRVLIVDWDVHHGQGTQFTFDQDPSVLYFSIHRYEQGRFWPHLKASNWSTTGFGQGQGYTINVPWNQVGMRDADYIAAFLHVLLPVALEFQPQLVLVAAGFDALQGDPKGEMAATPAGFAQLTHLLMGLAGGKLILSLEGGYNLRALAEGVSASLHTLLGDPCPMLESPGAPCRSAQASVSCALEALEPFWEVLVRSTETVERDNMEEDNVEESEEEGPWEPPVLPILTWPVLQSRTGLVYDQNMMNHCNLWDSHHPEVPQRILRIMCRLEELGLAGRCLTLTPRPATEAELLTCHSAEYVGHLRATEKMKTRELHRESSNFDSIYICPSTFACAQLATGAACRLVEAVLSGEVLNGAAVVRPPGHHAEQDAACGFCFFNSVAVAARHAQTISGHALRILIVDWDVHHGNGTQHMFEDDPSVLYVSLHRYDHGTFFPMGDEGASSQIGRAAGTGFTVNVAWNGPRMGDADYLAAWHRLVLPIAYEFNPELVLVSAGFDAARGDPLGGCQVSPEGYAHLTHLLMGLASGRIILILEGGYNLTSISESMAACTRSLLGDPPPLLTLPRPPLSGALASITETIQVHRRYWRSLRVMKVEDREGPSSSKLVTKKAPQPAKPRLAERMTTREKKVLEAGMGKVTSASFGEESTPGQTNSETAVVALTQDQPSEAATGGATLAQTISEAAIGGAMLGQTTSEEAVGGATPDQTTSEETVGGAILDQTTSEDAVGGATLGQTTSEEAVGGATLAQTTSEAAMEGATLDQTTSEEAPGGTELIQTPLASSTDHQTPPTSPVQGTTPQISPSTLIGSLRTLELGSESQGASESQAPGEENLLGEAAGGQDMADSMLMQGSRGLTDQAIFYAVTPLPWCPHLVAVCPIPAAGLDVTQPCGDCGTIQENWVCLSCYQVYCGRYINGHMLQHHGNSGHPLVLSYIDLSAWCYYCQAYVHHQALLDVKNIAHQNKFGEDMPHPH

HDAC3 = HDAC3 (Homo sapiens, UniProt O15379); test: HDAC isoform inhibition assay
HDAC3, sequence (O15379 whole entry, canonical isoform): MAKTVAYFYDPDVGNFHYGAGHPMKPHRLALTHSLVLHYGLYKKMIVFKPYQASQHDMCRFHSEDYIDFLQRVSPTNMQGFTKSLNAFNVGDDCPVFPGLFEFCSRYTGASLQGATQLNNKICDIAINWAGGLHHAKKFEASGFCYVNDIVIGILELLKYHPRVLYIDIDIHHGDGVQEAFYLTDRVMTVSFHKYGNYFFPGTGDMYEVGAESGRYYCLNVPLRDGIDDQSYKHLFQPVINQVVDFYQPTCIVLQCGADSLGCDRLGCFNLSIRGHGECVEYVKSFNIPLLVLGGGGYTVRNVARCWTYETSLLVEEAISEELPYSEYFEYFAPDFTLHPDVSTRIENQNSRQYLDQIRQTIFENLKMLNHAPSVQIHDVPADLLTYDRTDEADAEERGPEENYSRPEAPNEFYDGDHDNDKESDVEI
HDAC3, sequence (Q9Y618 395-489 partner limits assumed): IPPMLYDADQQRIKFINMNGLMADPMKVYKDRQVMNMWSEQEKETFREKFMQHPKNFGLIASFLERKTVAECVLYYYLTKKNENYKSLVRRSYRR

Panc04.03 cells [2] = test: Cell cycle analysis by flow cytometry; assay type: cell-based; settings: 5 µM for 24 h, vs vehicle (DMSO)
p21 in BXPC-3 cell line = test: Immunoblot of CDK inhibitor p21 expression; assay type: cell-based; settings: 5 µM for 18 h, vs vehicle (DMSO)
[3] = system: SU86.86 and Panc04.03 xenografts; test: Xenograft tumor model, SU86.86 and Panc04.03, immunoblot of tumor proteins; assay type: in vivo, mouse
HDAC2 = HDAC2 (Homo sapiens, UniProt Q92769); test: HDAC isoform inhibition assay
HDAC2, sequence (Q92769 whole entry, canonical isoform): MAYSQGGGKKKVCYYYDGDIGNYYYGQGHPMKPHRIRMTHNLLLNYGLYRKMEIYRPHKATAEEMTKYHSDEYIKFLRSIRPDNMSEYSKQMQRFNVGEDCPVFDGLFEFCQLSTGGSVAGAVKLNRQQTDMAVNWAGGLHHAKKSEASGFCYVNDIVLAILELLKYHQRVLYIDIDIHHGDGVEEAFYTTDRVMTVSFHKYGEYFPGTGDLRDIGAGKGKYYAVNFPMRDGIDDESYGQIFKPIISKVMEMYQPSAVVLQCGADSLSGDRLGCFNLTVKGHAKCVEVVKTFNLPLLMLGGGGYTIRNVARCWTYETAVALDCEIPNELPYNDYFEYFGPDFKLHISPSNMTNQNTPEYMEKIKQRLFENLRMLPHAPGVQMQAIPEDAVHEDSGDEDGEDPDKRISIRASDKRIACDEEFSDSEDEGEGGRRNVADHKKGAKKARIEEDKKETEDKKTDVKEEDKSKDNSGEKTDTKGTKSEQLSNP

HDAC8 = molecular target: T2, HDAC8 (Homo sapiens, UniProt Q9BY41); test: HDAC isoform inhibition assay
T2 sequence (Q9BY41 1-377): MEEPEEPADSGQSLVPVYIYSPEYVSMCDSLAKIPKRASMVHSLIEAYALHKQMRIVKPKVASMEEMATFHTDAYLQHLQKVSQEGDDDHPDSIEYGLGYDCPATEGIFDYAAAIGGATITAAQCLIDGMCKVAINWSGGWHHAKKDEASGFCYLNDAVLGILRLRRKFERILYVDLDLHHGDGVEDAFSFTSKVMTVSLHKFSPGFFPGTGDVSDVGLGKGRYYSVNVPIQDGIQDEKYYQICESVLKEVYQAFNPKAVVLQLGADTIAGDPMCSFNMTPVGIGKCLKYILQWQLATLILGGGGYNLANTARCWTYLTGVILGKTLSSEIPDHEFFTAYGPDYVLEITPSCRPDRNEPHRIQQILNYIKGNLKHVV

HDAC10 = molecular target: T3, HDAC10 (Homo sapiens, UniProt Q969S8); test: HDAC isoform inhibition assay
T3 sequence (Q969S8 1-669): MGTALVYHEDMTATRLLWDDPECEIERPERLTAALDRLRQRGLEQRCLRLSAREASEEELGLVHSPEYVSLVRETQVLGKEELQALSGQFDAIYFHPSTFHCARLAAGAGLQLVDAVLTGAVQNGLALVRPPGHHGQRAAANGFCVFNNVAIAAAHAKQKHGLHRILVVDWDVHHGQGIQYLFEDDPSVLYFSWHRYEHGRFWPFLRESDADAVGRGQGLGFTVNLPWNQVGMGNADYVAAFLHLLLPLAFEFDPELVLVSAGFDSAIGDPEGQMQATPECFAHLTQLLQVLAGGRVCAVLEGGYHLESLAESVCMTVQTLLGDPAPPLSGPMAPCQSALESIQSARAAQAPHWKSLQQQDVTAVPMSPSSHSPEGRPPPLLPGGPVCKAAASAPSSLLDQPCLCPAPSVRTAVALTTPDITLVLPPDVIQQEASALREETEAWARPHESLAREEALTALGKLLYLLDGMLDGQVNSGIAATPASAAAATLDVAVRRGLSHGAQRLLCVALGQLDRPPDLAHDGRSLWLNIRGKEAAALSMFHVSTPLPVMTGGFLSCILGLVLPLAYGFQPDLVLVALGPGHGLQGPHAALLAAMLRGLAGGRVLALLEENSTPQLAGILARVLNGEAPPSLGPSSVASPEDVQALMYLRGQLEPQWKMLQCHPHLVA

O=C(CCCCCCC(=O)Nc1cccc(-c2cn(-c3ccc(CO)cc3)nn2)c1)NO [4f, Octanedioic acid hydroxyamide {3-[1-(4-hydroxymethylphenyl)-1H-[1,2,3]triazol-4-yl]phenyl}amide]
IC50 (BxPC-3 cells; Homo sapiens, BXPC-3, 72 h): 1000 nM | IC50 (HupT3 cells; Homo sapiens, HuP-T3, 72 h): 200 nM | IC50 (MiaPaca-2 cells; Homo sapiens, MIA PaCa-2, 72 h): 200 nM | IC50 (Panc04.03 cells [1]; Homo sapiens, Panc 04.03, 72 h): 1000 nM | IC50 (SU86.86 cells; Homo sapiens, SU.86.86, 72 h): 1000 nM | IC50 (HDAC1): 3.04 nM | IC50 (HDAC6): 7.6 nM

COc1ccc(-n2cc(-c3cccc(NC(=O)CCCCCCC(=O)NO)c3)nn2)cc1F [4h, Octanedioic acid {3-[1-(3-fluoro-4-methoxyphenyl)-1H-[1,2,3]-triazol-4-yl]phenyl}amide hydroxyamide]
IC50 (BxPC-3 cells; Homo sapiens, BXPC-3, 72 h): 200 nM | IC50 (HupT3 cells; Homo sapiens, HuP-T3, 72 h): 50 nM | IC50 (MiaPaca-2 cells; Homo sapiens, MIA PaCa-2, 72 h): 100 nM | IC50 (Panc04.03 cells [1]; Homo sapiens, Panc 04.03, 72 h): 100 nM | IC50 (SU86.86 cells; Homo sapiens, SU.86.86, 72 h): 1000 nM | IC50 (HDAC1): 5.06 nM | IC50 (HDAC3): 3.39 nM | IC50 (HDAC6): 3.85 nM

O=C(CCCCCCC(=O)Nc1ccccc1)NO [SAHA (1a), suberoylanilide hydroxamic acid, reference compound]
IC50 (HupT3 cells; Homo sapiens, HuP-T3, 72 h): 800 nM

O=C(CCCCCCC(=O)Nc1cccc(-c2cn(-c3ccccc3)nn2)c1)NO [compound 4a, octanedioic acid hydroxyamide[3-(1-phenyl-1H-[1,2,3]triazol-4-yl)phenyl]amide]
effect on cell cycle profile (Panc04.03 cells [2]): loss of S-phase cells and an increase in the percentage of cells in G1 | expression of p21 protein (p21 in BXPC-3 cell line): increased expression of p21 | expression of CDK inhibitors p15, p16, p21, p27 and p57 in xenograft tumors ([3]; 10 and 100 mg/kg i.p. every 12 h for 48 h, athymic nude mice): re-activated | pancreatic cancer cell growth in vivo ([3]; pancreatic tumor cell line xenografts, preliminary in vivo evaluation): suppresses pancreatic cancer cell growth in vivo | IC50 (Panc04.03 cells [1]; Homo sapiens, Panc 04.03, 72 h): < 500 nM

O=C(CCCCCCC(=O)Nc1cccc(-c2cn(C3CCCCC3)nn2)c1)NO [compound 4j, Octanedioic acid [3-(1-cyclohexyl-1H-[1,2,3]triazol-4-yl)phenyl]amide hydroxyamide]
fold more potent than compound 4a, HDAC1 (HDAC1; ratio of IC50 vs 4a): 2- to 3 fold | fold more potent than compound 4a, HDAC2 (HDAC2): 2- to 3 fold | fold more potent than compound 4a, HDAC3 (HDAC3): 2- to 3 fold | fold more potent than compound 4a, HDAC8 (HDAC8; ratio of IC50 vs 4a): 2- to 3 fold | fold more potent than compound 4a, HDAC10 (HDAC10; ratio of IC50 vs 4a): 2- to 3 fold | fold more potent than compound 4a, HDAC6 (HDAC6; ratio of IC50 vs 4a): 2- to 3 fold

Octanedioic acid (2-aminophenyl)amide [3-(1-phenyl-1H-[1,2,3] triazol-4-yl)phenyl]amide [12a]
IC50 (BxPC-3 cells; 72 h post treatment): > 50000 nM | IC50 (HupT3 cells; 72 h post treatment): > 50000 nM | IC50 (MiaPaca-2 cells; 72 h post treatment): > 50000 nM | IC50 (Panc04.03 cells [1]; 72 h post treatment): > 50000 nM | IC50 (SU86.86 cells; 72 h post treatment): 32000 nM | IC50 (HDAC3; read-out: IC50 HDAC3): 122 ± 9 nM | IC50 (HDAC8; read-out: IC50 HDAC8, tested at Nanosyn, 17 hours at 25 °C): > 30000 nM | IC50 (HDAC10; read-out: IC50 HDAC10, tested at Nanosyn, 17 hours at 25 °C): > 30000 nM | IC50 (HDAC6; read-out: IC50 HDAC6, tested at Nanosyn, 17 hours at 25 °C): > 30000 nM
